Reference: PMC4462585, “Synthesis and Biological Evaluation of 3-Alkyl-1,5-Diaryl-1H-Pyrazoles as Rigid Analogues of Combretastatin A-4 with Potent Antiproliferative Activity” (PLoS ONE, 2015)

Tests used:
[1] = tested on: microtubule network in HT-1080 cells; experiment: Immunostaining of tubulin assembly in HT-1080 cells; type: cell-based, human; conditions: 2-fold IC50 concentration (7k 0.18 μM), 48 h
Experimental: Microtubules were labelled using the indirect immuno-fluorescence method and were analysed by fluorescence microscopy. […] HT-1080 cells were treated with 7k (0.18 μM) for 48 h (scale bar = 10 μm). The left, middle and right panels represent tubulin assembly stained with FITC, DAPI and a merge of the corresponding left and middle panels, respectively. Images were taken using a confocal microscope. Immunostaining was performed to detect microtubule-associated tubulin protein after exposure to CA-4 and compound 7k. The SGC-7901 and HT-1080 cells were seeded at a density of 1 × 10^4 per well on a 24-well plate and grown for 24 h. […] The control and treated cells were fixed in acetone:methanol (1:1) for 30 min at -20°C, washed with 1X PBS, incubated for 30 min in 1X PBS containing 2% BSA, and then 0.1% Triton X-100. The primary tubulin antibody (Cell Signaling Technology, MA, USA) was diluted (1:100) with 2% BSA in 1X PBS and incubated overnight at 4°C. The cells were washed with 1X PBS to remove unbound primary antibody, and then cells were incubated for 3 h at 37°C with FITC-conjugated anti-mouse secondary antibody diluted 1:1000 with 2% BSA in PBS.

[2] = tested on: fibrosarcoma cell line HT-1080; experiment: MTT antiproliferative assay, HT-1080; type: cell-based; conditions: Homo sapiens, 72 h drug exposure, triplicate, read-out: Antiproliferative activity (IC50 ± SD) HT-1080
Description: (§1) Pulmonary adenocarcinoma cell lines (A549) and gastric adenocarcinoma cell lines (SGC-7901) were provided as gifts (purchased from the Cell Resource Center of Shanghai Institutes for Biological Sciences) from the China-Japan Research Institute of Medical and Pharmaceutical Sciences, Shenyang Pharmaceutical University. Fibrosarcoma cell lines (HT-1080) were purchased from the Cell Resource Center of Shanghai Institutes for Biological Sciences. All cells were maintained in DMEM containing 1% antibiotics (100 units of penicillin and […] per mL in 0.9% normal saline) and 10% foetal bovine serum in a humidified atmosphere containing 5% CO2 at 37°C.
(§2) Antiproliferative activities of CA-4 and the target compounds were measured using a colourimetric assay using 3-(4,5-dimethylthiazol-2yl-)-2,5-diphenyltetrazolium bromide (MTT). Approximately 3 × 10^4 cells were seeded in a 96-well plate. After 24 h of incubation at 37°C, cells were exposed to compounds of differing concentrations (0.0008 μg/mL, 0.004 μg/mL, 0.02 μg/mL, 0.10 μg/mL, 0.50 μg/mL, 2.5 μg/mL, 12.5 μg/mL, 62.5 μg/mL) for 72 h. After treatment, cells were washed with 1X PBS followed by addition of 100 μL of 0.05% MTT reagent to each well, followed by incubation for 4 h at 37°C. After incubation, the supernatant from each well was carefully removed and the formazan crystals were dissolved in 100 μL of DMSO. The colour density was measured spectrophotometrically at 490 nm using a microplate reader (SpectraMax Plus384, Molecular Devices Corp., USA). The percentage of cell growth inhibition was calculated as follow: inhibition ratio % = (Acontrol—Atreated) / Acontrol × 100%. The 50% inhibitory concentration (IC50) was defined as the concentration that reduced the absorbance of the untreated wells by 50% of the vehicle in the MTT assay.

[3] = tested on: gastric adenocarcinoma cell line SGC-7901; experiment: MTT antiproliferative assay, SGC-7901; type: cell-based; conditions: Homo sapiens, 72 h drug exposure, triplicate, read-out: Antiproliferative activity (IC50 ± SD) SGC-7901
Description: as §1, §2

[4] = tested on: three human cancer cell lines (SGC-7901, A549 and HT-1080); experiment: MTT antiproliferative assay, three human cancer cell lines; type: cell-based; conditions: HT-1080, SGC-7901, A549, 72 h, read-out: Antiproliferative IC50 values, range over the three cancer cell lines
Description: as §1
Antiproliferative activities of CA-4 and the target compounds were measured using a colourimetric assay using 3-(4,5-dimethylthiazol-2yl-)-2,5-diphenyltetrazolium bromide (MTT). Approximately 3 × 10^4 cells were seeded in a 96-well plate. After 24 h of incubation at 37°C, cells were exposed to compounds of differing concentrations (0.0008 μg/mL, 0.004 μg/mL, 0.02 μg/mL, 0.10 μg/mL, 0.50 μg/mL, 2.5 μg/mL, 12.5 μg/mL, 62.5 μg/mL) for 72 h. […] The colour density was measured spectrophotometrically at 490 nm using a microplate reader (SpectraMax Plus384, Molecular Devices Corp., USA). The percentage of cell growth inhibition was calculated as follow: inhibition ratio % = (Acontrol—Atreated) / Acontrol × 100%. […]

purified bovine tubulin = experiment: Tubulin assembly (polymerization) assay, cell-free, fluorescence-based; type: biochemical; conditions: 37°C, IC50 calculated at 80 min, three experiments, read-out: Inhibition of tubulin polymerization IC50
Experimental: Fig 5 Dose-response effects of CA-4 (1), 7i and 7k on the inhibition of tubulin polymerization. Purified bovine tubulin and GTP were mixed in a 96-well plate. The reaction was initiated by warming the solution from 4°C to 37°C. DMSO was used as a vehicle control. The effect on the assembly of tubulin was monitored using a plate reader at 1 min intervals for 90 min at 37°C.
The effect of compounds 7i and 7k on the polymerization of purified brain tubulin was determined employing a fluorescence-based tubulin polymerization assay kit (Cat. #BK011P, Cytoskeleton, Inc., USA) according to the manufacturer’s protocol. Tubulin was re-suspended in ice-cold G-PEM buffer (80 mM PIPES, 2 mM MgCl2, 0.5 mM EGTA, 1 mM GTP, 20% (v/v) glycerol) and added to wells on a 96-well plate containing the designated concentration of drugs or vehicle. Samples were mixed well, and tubulin assembly was monitored (emission wavelength: 450 nm; excitation wavelength: 360 nm) at 1 min intervals for 90 min at 37°C using a plate reader ([…]). IC50 values were calculated at 80 min using SPSS software in three experiments.

[5] = tested on: microtubule network in SGC-7901 cells; experiment: Immunostaining of tubulin assembly in SGC-7901 cells; type: cell-based, human; conditions: 2-fold IC50 concentration (7k 0.14 μM), 48 h
Experimental: Microtubules were labelled using the indirect immuno-fluorescence method and were analysed by fluorescence microscopy. […] SGC-7901 cells were treated with 7k (0.14 μM) for 48 h (scale bar = 10 μm). The left, middle and right panels represent the tubulin assembly stained with FITC, DAPI and a merge of the corresponding left and middle panels, respectively. Images were taken using a confocal microscope. Immunostaining was performed to detect microtubule-associated tubulin protein after exposure to CA-4 and compound 7k. The SGC-7901 and HT-1080 cells were seeded at a density of 1 × 10^4 per well on a 24-well plate and grown for 24 h. […] The control and treated cells were fixed in acetone:methanol (1:1) for 30 min at -20°C, washed with 1X PBS, incubated for 30 min in 1X PBS containing 2% BSA, and then 0.1% Triton X-100. The primary tubulin antibody (Cell Signaling Technology, MA, USA) was diluted (1:100) with 2% BSA in 1X PBS and incubated overnight at 4°C. The cells were washed with 1X PBS to remove unbound primary antibody, and then cells were incubated for 3 h at 37°C with FITC-conjugated anti-mouse secondary antibody diluted 1:1000 with 2% BSA in PBS.

[6] = tested on: pulmonary adenocarcinoma cell line A549; experiment: MTT antiproliferative assay, A549; type: cell-based; conditions: Homo sapiens, 72 h drug exposure, triplicate, read-out: Antiproliferative activity (IC50 ± SD) A549
Description: as §1, §2

| IC50 [2] [nM] | IC50 [3] [nM] | IC50 (purified bovine tubulin) [nM] | IC50 [6] [nM] | melting point [°C] | Compound | Effect on microtubule network (immunofluorescence), HT-1080 [1] | IC50 [4] [nM] | Effect on microtubule network (immunofluorescence), SGC-7901 [5] |
| --- | --- | --- | --- | --- | --- | --- | --- | --- |
| 930 ± 130 | 275 ± 20 | 2500 | 1120 ± 120 | 130 to 131 | COc1ccc(-c2cc(C)nn2-c2cc(OC)c(OC)c(OC)c2)cc1O [Compound 7i, 3-Methyl-5-(3-hydroxy-4-methoxyphenyl)-1-(3,4,5-trimethoxyphenyl)-1H-pyrazole] |  |  |  |
| 122 ± 13 | 76 ± 9 | 1700 | 96 ± 11 | 129 to 130 | COc1ccc(-c2cc(C)nn2-c2cc(OC)c(OC)c(OC)c2)cc1N [Compound 7k, 3-Methyl-5-(3-amino-4-methoxyphenyl)-1-(3,4,5-trimethoxyphenyl)-1H-pyrazole] | disruption of the tubulin network | 76 to 120 | disruption of the tubulin network |

| Compound | IC50 [2] [nM] | IC50 [3] [nM] | IC50 (purified bovine tubulin) [nM] | IC50 [6] [nM] | melting point [°C] | Effect on microtubule network (immunofluorescence), HT-1080 [1] | IC50 [4] [nM] | Effect on microtubule network (immunofluorescence), SGC-7901 [5] |
| --- | --- | --- | --- | --- | --- | --- | --- | --- |
| COc1ccc(/C=C\c2cc(OC)c(OC)c(OC)c2)cc1O [Compound 1, Combretastatin A-4] | 23 ± 12 | 16 ± 10 | 900 | 35 ± 9 |  | disruption of the tubulin network | 16 to 35 | disruption of the tubulin network |
